Test [1] has as its target T1, human TNFR1 extracellular domain (ECD) protein (Homo sapiens, UniProt P19438).
T1 construct: HRV 3C protease cleavage site (C); 6His (C, cleaved yes); made in house; host or cells: Sf21 insect cells (baculovirus), secreted
T1 sequence (P19438 30-211): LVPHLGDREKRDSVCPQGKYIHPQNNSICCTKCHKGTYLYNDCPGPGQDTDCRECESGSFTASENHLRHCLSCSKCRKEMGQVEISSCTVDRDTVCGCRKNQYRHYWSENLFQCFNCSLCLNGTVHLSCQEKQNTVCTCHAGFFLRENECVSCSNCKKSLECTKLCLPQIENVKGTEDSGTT
Nature of the test: SPR binding affinity to captured human TNFR1 ECD. The gist of the method:
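Peptide binding kinetics read by SPR in HEPES pH 7.4 running buffer with 2% DMSO, with TNFR2 ECD tested in parallel for off-target binding. Receptor ECDs, insect-cell expressed and biotinylated at C-terminal avi-tag, were captured via streptavidin. KA derived from association and dissociation rate constants.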

For test [2], the target named is T2, TNFα-induced NF-κB signal transduction pathway (TNFR1 signaling) in THP-1 cells (Homo sapiens, UniProt P19438).
T2 sequence (P19438 30-455): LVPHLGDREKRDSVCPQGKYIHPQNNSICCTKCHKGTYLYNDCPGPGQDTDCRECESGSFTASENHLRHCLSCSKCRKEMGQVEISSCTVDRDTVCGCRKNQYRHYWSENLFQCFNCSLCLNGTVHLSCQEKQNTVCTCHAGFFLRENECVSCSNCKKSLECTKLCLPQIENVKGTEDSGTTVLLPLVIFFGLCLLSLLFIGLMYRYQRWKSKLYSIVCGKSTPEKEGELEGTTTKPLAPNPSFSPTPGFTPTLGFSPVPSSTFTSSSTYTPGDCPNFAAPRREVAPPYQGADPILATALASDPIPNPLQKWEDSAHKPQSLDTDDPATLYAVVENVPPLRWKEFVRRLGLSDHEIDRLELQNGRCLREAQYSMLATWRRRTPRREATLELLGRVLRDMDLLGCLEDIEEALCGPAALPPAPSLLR
The test can be described thus: THP-1 Lucia NF-κB reporter cell assay, inhibition of TNFα-induced NF-κB signaling. Format: cell-based. To be noted: THP-1 NF-κB Lucia reporter cells, 10 ng/mL TNFα, 16-18 h, secreted luciferase; read-out: THP-1 IC50. The gist of the method:
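Inhibition of TNFR1-driven NF-κB activation was measured as luminescence of secreted reporter luciferase following overnight (16-18 h) stimulation with 10 ng/mL TNFα.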

The mark [3] stands for this setting: biotinylated human TNFR1 ECD on streptavidin chip, from kon and koff, read-out: SPR hTNFR1 KD.

The structures appear in SMILES notation. Read-outs that look alike come from different tables or passages of the source. Numbered stars: 1 amine (or outer) side, 2 acyl side, 3 side chain; on linkers, the order of the positions; unused ones are H or OH. Square brackets hold non-standard residues; d marks the D form. Peptide text beside a SMILES is read from it. * marks the point of attachment. Trp(βS-Me,7-OMe) = COc1cccc2c([C@H](C)[C@H](N)C(=O)O)c[nH]c12; Trp(1-CH2COOH) = N[C@@H](Cc1cn(CC(=O)O)c2ccccc12)C(=O)O; Phe(4-CH2CH2COOH) = N[C@@H](Cc1ccc(CCC(=O)O)cc1)C(=O)O; Phe(4-SO2NH2) = N[C@@H](Cc1ccc(S(N)(=O)=O)cc1)C(=O)O; Trp(7-CN) = N#Cc1cccc2c(C[C@H](N)C(=O)O)c[nH]c12; Trp(7-Cl) = N[C@@H](Cc1c[nH]c2c(Cl)cccc12)C(=O)O; Phe(4-CONH2) = NC(=O)c1ccc(C[C@H](N)C(=O)O)cc1; Phe(4-COOH) = N[C@@H](Cc1ccc(C(=O)O)cc1)C(=O)O; Trp(7-aza) = N[C@@H](Cc1c[nH]c2ncccc12)C(=O)O; Phe(4-CH2NH2) = NCc1ccc(C[C@H](N)C(=O)O)cc1; dPro(4S-NH2) = N[C@@H]1CN[C@@H](C(=O)O)C1; Pip(5R-OH) = O=C(O)[C@@H]1CC[C@@H](O)CN1; X1 = O=C([C@@H]1CC[C@H](N[*:1])C1)[*:2]; Pip(4-aza) = O=C(O)[C@@H]1CNCCN1; 4Pal = N[C@@H](Cc1ccncc1)C(=O)O; NMeE = CN[C@@H](CCC(=O)O)C(=O)O; dHyp = O=C(O)[C@H]1C[C@H](O)CN1; αMeS = C[C@](N)(CO)C(=O)O; Carboxymethyl = O=C(O)C*; Nle = CCCC[C@H](N)C(=O)O; Sar = CNCC(=O)O

As usually defined, the Kd is the equilibrium constant for the complex coming apart. Usually IC50 stands for the concentration at which inhibition is half-maximal.

Take `CCCC[C@@H]1NC(=O)[C@@H]2CC[C@@H](C2)NC(=O)[C@H]([C@@H](C)c2c[nH]c3c(OC)cccc23)NC(=O)CN(C)C(=O)[C@H](Cc2ccc(C(=O)O)cc2)NC(=O)[C@H](Cc2ccc(C(N)=O)cc2)NC(=O)[C@](C)(CO)NC(=O)[C@H](Cc2c[nH]c3c(C#N)cccc23)NC(=O)[C@H](Cc2ccc(C(=O)O)cc2)NC(=O)[C@H](CC(N)=O)NC(=O)[C@H]2C[C@H](N)CN2C(=O)[C@H](Cc2cn(CC(=O)O)c3ccccc23)NC(=O)[C@@H]2CC[C@@H](O)CN2C(=O)[C@H](Cc2ccncc2)NC1=O` [SEQ ID NO. 104] (cyclo([4Pal][Pip(5R-OH)][Trp(1-CH2COOH)][dPro(4S-NH2)]N[Phe(4-COOH)][Trp(7-CN)][αMeS][Phe(4-CONH2)][Phe(4-COOH)][Sar][Trp(βS-Me,7-OMe)][X1][Nle])): in test [1] (setting [3]), the Kd came to 20 pM. Also, the concentration for half-maximal inhibition (IC50) in test [2] amounted to 1000 pM.
As to `CCCC[C@@H]1NC(=O)[C@@H]2CC[C@@H](C2)NC(=O)[C@H]([C@@H](C)c2c[nH]c3c(OC)cccc23)NC(=O)CN(C)C(=O)[C@H](Cc2ccc(CN)cc2)NC(=O)[C@H](Cc2ccc(C(=O)O)cc2)NC(=O)[C@](C)(CO)NC(=O)[C@H](Cc2c[nH]c3c(Cl)cccc23)NC(=O)[C@H](Cc2ccncc2)NC(=O)[C@H](CC(N)=O)NC(=O)[C@H](CCC(=O)O)N(C)C(=O)[C@H](Cc2c[nH]c3ccccc23)NC(=O)[C@@H]2CNCCN2C(=O)[C@H](Cc2ccncc2)NC1=O` [SEQ ID NO. 269] (cyclo([4Pal][Trp(7-Cl)][αMeS][Phe(4-COOH)][Phe(4-CH2NH2)][Sar][Trp(βS-Me,7-OMe)][X1][Nle][4Pal][Pip(4-aza)]W[NMeE]N)), binding in test [1] was put at a Kd of 100 pM. The IC50 in test [2] stood at 1000 pM.
For the compound `CCCC[C@@H]1NC(=O)[C@@H]2CC[C@@H](C2)NC(=O)[C@H]([C@@H](C)c2c[nH]c3c(OC)cccc23)NC(=O)CN(C)C(=O)[C@H](Cc2ccc(CCC(=O)O)cc2)NC(=O)[C@H](Cc2ccc(S(N)(=O)=O)cc2)NC(=O)[C@](C)(CO)NC(=O)[C@H](Cc2c[nH]c3c(C#N)cccc23)NC(=O)[C@H](Cc2ccc(OCC(=O)O)cc2)NC(=O)[C@H](CC(N)=O)NC(=O)[C@H]2C[C@H](O)CN2C(=O)[C@H](Cc2c[nH]c3ncccc23)NC(=O)[C@@H]2CC[C@@H](O)CN2C(=O)[C@H](Cc2ccncc2)NC1=O` [SEQ ID NO. 30] (cyclo([4Pal][Pip(5R-OH)][Trp(7-aza)][dHyp]NY(Carboxymethyl)[Trp(7-CN)][αMeS][Phe(4-SO2NH2)][Phe(4-CH2CH2COOH)][Sar][Trp(βS-Me,7-OMe)][X1][Nle])), the Kd in test [1] (setting [3]) was found to be 50 pM. For the same compound, the IC50 in test [2] was 500 pM.

These data come from US20240287138A1, “CYCLIC PEPTIDES FOR INHIBITING TNF RECEPTOR 1 ACTIVITY” (Merck Sharp & Dohme LLC, priority 2023, published 2024).
